# In patent publication US7531671B2, “Dihydroisoindolones as allosteric modulators of glucokinase” (Janssen Pharmaceutica N.V., priority 2005, dated 2009):
# “And” between values parts separate entries of the source, which are not always exact repeats. Equal values may be shown once.
# Molecular target: T1, human pancreas Glucokinase (GK) (Homo sapiens, UniProt P35557)
# T1 construct: (His)6; made in house; host or cells: Escherichia coli
# T1 sequence (P35557 1-465): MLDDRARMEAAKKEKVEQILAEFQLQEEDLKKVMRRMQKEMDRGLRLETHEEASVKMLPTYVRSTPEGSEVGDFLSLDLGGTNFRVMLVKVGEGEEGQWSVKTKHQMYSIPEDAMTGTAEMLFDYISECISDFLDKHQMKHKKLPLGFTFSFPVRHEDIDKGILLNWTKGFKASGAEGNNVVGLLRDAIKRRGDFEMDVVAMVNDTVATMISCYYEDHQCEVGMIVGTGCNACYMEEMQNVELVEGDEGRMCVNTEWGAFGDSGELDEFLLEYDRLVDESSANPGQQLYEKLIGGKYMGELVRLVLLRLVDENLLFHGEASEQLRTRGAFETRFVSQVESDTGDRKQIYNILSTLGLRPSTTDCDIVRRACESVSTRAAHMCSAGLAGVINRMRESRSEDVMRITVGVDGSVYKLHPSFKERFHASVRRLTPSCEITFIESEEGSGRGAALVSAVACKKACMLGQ
# Assay: Glucokinase enzyme assay, Pancreas GK data
# Format: biochemical
# Conditions: for activation at 50 µM: compound 50 μM, percentage increase in GK activity above vehicle control, 12 mM glucose; for EC50: concentration producing 50% activation above vehicle control; for EC100%: concentration producing 100% activation above vehicle control
# Source text: An enzymatic Glucokinase (GK) assay using purified recombinant human liver/pancreas enzyme was used to evaluate the effects of potential small molecule modulators.
# In this assay, GK catalyzes glucose phosphorylation in the presence of ATP. The product of this reaction, glucose-6-phosphate, was then oxidized by an excess of glucose-6-phosphate dehydrogenase to produce gluconate-6-phosphate with concomitant reduction of nicotinamide adenine dinucleotide (NAD). […] Human GK (Liver/Pancreas) was expressed in Escherichia coli as a (His) 6-tagged fusion protein and was purified by metal chelate affinity chromatography. The assay was performed in a final incubation volume of 80 μl in a 96-well clear low UV absorption plates. The incubation mixture consisted of 25 mM HEPES, 2 mM MgSO4, 1 mM dithiothreotol (DTT), 1 mg/ml bovine serum albumin (BSA), 1 mM ATP, 1 mM NAD, and 12 mM glucose, 10 units per ml glucose-6-phosphate dehydrogenase, and +/−300 ng per ml GK. For determination of the affinity (Km) and Vmax, different concentrations of glucose ranging from 0.5 mM to 40 mM were used in the assay; see Grimsby, J., Sarabu, R.; Grippo, J. F.; et. al. Science 2003, 301, 370-373. Production of reduced NAD (Nicotinamide Adenine Dinucleotide) was measured as changes in absorption at 340 nm in 96-well plate reader (Envision model # 2101 Multilabel Plate reader). % Activation @ 50 μM was calculated as the percentage increase in GK activity above the vehicle control with the effective concentration of the compound being 50 μM. EC50% (μM) was calculated as the effective concentration of the compound that produces 50% activation above the vehicle control, and EC100% (μM) was calculated as the effective concentration of the compound that produces 100% activation above the vehicle control.
activation at 50 µM [%],EC50,EC100%,SMILES
201,1000 nM,3.8 µM,"O=C(CSC1c2ccccc2C(=O)N1Cc1ccc2c(c1)OCCO2)Nc1ccccn1 (stereo not shown) [Compound 38, 2-[2-(2,3-Dihydro-benzo[1,4]dioxin-6-ylmethyl)-3-oxo-2,3-dihydro-1H-isoindol-1-ylsulfanyl]-N-pyridin-2-yl-acetamide]"
193,1400 nM,5.3 µM,"COc1cc(CN2C(=O)c3ccccc3C2SCC(=O)Nc2ccccn2)cc(OC)c1OC (stereo not shown) [Compound 39, 2-[3-Oxo-2-(3,4,5-trimethoxy-benzyl)-2,3-dihydro-1H-isoindol-1-ylsulfanyl]-N-pyridin-2-yl-acetamide]"
109,2100 nM,16.1 µM,"O=C(CSC1c2ccccc2C(=O)N1Cc1ccc(N2CCCC2=O)cc1)Nc1ccccn1 (stereo not shown) [Compound 40, 2-{3-Oxo-2-[4-(2-oxo-pyrrolidin-1-yl)-benzyl]-2,3-dihydro-1H-isoindol-1-ylsulfanyl}-N-pyridin-2-yl-acetamide]"
152,2800 nM,10 µM,"O=C(CSC1c2ccccc2C(=O)N1Cc1ccc2c(c1)OCO2)Nc1ccccn1 (stereo not shown) [Compound 41, 2-(2-Benzo[1,3]dioxol-5-ylmethyl-3-oxo-2,3-dihydro-1H-isoindol-1-ylsulfanyl)-N-pyridin-2-yl-acetamide]"
,540 nM and 780 nM,1.6 µM and 2.4 µM,"COc1ccc(CN2C(=O)c3ccccc3C2SCC(=O)Nc2ccccn2)cc1OC (stereo not shown) [Compound 42, 2-[2-(3,4-Dimethoxybenzyl)-3-oxo-2,3-dihydro-1H-isoindol-1-ylsulfanyl]-N-pyridin-2-yl-acetamide]"
112,4000 nM,7.1 µM,"O=C(CSC1c2ccccc2C(=O)N1Cc1cccc2ccccc12)Nc1ccccn1 (stereo not shown) [Compound 43, 2-(2-Naphthalen-1-ylmethyl-3-oxo-2,3-dihydro-1H-isoindol-1-ylsulfanyl)-N-pyridin-2-yl-acetamide]"
116,890 nM,5.9 µM,"O=C(CSC1c2ccccc2C(=O)N1Cc1ccc2sccc2c1)Nc1ccccn1 (stereo not shown) [Compound 44, 2-(2-Benzo[b]thiophen-5-ylmethyl-3-oxo-2,3-dihydro-1H-isoindol-1-ylsulfanyl)-N-pyridin-2-yl-acetamide]"
132,380 nM,2 µM,"Cc1[nH]c2ccc(CN3C(=O)c4ccccc4C3SCC(=O)Nc3ccccn3)cc2c1C (stereo not shown) [Compound 45, 2-[2-(2,3-Dimethyl-1H-indol-5-ylmethyl)-3-oxo-2,3-dihydro-1H-isoindol-1-ylsulfanyl]-N-pyridin-2-yl-acetamide]"
106,800 nM,4.8 µM,"O=C(CSC1c2ccccc2C(=O)N1Cc1ccc(-n2cccc2)cc1)Nc1ccccn1 (stereo not shown) [Compound 46, 2-[3-Oxo-2-(4-pyrrol-1-yl-benzyl)-2,3-dihydro-1H-isoindol-1-ylsulfanyl]-N-pyridin-2-yl-acetamide]"
106,800 nM,,"O=C(CSC1c2ccccc2C(=O)N1Cc1ccc(-n2cccn2)cc1)Nc1ccccn1 (stereo not shown) [Compound 47, 2-[3-Oxo-2-(4-pyrazol-1-yl-benzyl)-2,3-dihydro-1H-isoindol-1-ylsulfanyl]-N-pyridin-2-yl-acetamide]"
174,1600 nM,6.9 µM,"O=C(CSC1c2ccccc2C(=O)N1Cc1ccc(OC(F)(F)F)cc1)Nc1ccccn1 (stereo not shown) [Compound 48, 2-[3-Oxo-2-(4-trifluoromethoxybenzyl)-2,3-dihydro-1H-isoindol-1-ylsulfanyl]-N-pyridin-2-yl-acetamide]"
250,210 nM,0.86 µM,"COc1ccc(CN2C(=O)c3ccccc3C2SCC(=O)Nc2ccccn2)cc1 (stereo not shown) [Compound 49, 2-[2-(4-Methoxybenzyl)-3-oxo-2,3-dihydro-1H-isoindol-1-ylsulfanyl]-N-pyridin-2-yl-acetamide]"
161,360 nM,1.7 µM,"CN(C)c1ccc(CN2C(=O)c3cccc(F)c3C2SCC(=O)Nc2ccccn2)cc1 (stereo not shown) [Compound 51, 2-[2-(4-Dimethylaminobenzyl)-7-fluoro-3-oxo-2,3-dihydro-1H-isoindol-1-ylsulfanyl]-N-pyridin-2-yl-acetamide]"
,,0.056 µM and 0.066 µM,"COc1ccc(CN2C(=O)c3cccc(F)c3C2SCC(=O)Nc2ccccn2)cc1OC (stereo not shown) [Compound 52, 2-[2-(3,4-Dimethoxybenzyl)-7-fluoro-3-oxo-2,3-dihydro-1H-isoindol-1-ylsulfanyl]-N-pyridin-2-yl-acetamide]"
101,18300 nM,,"CCCCN1C(=O)c2ccccc2C1OCC(=O)Nc1nccs1 (stereo not shown) [Compound 53, 2-(2-Butyl-3-oxo-2,3-dihydro-1H-isoindol-1-yloxy)-N-thiazol-2-yl-acetamide]"
358,1100 nM,6.1 µM,"O=C(CSC1c2ccccc2C(=O)N1Cc1ccc(F)cc1)Nc1ccc(C(=O)O)cn1 (stereo not shown) [Compound 54, 6-{2-[2-(4-Fluorobenzyl)-3-oxo-2,3-dihydro-1H-isoindol-1-ylsulfanyl]-acetylamino}-nicotinic acid]"
246,1350 nM,3.4 µM,"COc1ccc(CN2C(=O)c3ccccc3C2SCC(=O)Nc2ccc(C(=O)O)cn2)cc1 (stereo not shown) [Compound 55, 6-{2-[2-(4-Methoxybenzyl)-3-oxo-2,3-dihydro-1H-isoindol-1-ylsulfanyl]-acetylamino}-nicotinic acid]"
219,850 nM,2.7 µM,"COc1ccc(CN2C(=O)c3ccccc3C2SCC(=O)Nc2ccc(C(=O)O)cn2)cc1OC (stereo not shown) [Compound 56, 6-{2-[2-(3,4-Dimethoxybenzyl)-3-oxo-2,3-dihydro-1H-isoindol-1-ylsulfanyl]-acetylamino}-nicotinic acid]"
258,130 nM,0.4 µM,"COc1ccc(CN2C(=O)c3c(F)ccc(F)c3C2SCC(=O)Nc2ccc(C(=O)O)cn2)cc1OC (stereo not shown) [Compound 57, 6-{2-[2-(3,4-Dimethoxybenzyl)-4,7-difluoro-3-oxo-2,3-dihydro-1H-isoindol-1-ylsulfanyl]-acetylamino}-nicotinic acid]"
70,27000 nM,,"Cc1ccc2c(c1)C(OCC(=O)Nc1cnccn1)N(Cc1ccccc1)C2=O (stereo not shown) [Compound 58, 2-(2-Benzyl-6-methyl-3-oxo-2,3-dihydro-1H-isoindol-1-yloxy)-N-pyrazin-2-yl-acetamide]"
127,3300 nM,20.58 µM,COC(=O)c1ccc(NC(=O)COC2c3cc(C)ccc3C(=O)N2Cc2ccccc2)nc1 (stereo not shown) [Compound 59]
102,7600 nM,,"Cc1ccc2c(c1)C(OCC(=O)Nc1nccs1)N(Cc1ccccc1)C2=O (stereo not shown) [Compound 60, 2-(2-Benzyl-6-methyl-3-oxo-2,3-dihydro-1H-isoindol-1-yloxy)-N-thiazol-2-yl-acetamide]"
8.4,26000 nM,,"Cc1ccc2c(c1)C(OCC(=O)Nc1ccccn1)N(Cc1ccccc1)C2=O (stereo not shown) [Compound 61, 2-(2-Benzyl-6-methyl-3-oxo-2,3-dihydro-1H-isoindol-1-yloxy)-N-pyridin-2-yl-acetamide]"
